Data from PMC7506137, “Selective Phosphodiesterase 1 Inhibitor BTTQ Reduces Blood Pressure in Spontaneously Hypertensive and Dahl Salt Sensitive Rats: Role of Peripheral Vasodilation” (Frontiers in Physiology, 2020).

Tests used:
Assay type in all cases: in vivo
[1] = tested on: Sprague Dawley rats; experiment: Rat ear temperature (vasodilation)
Protocol: Male Sprague Dawley rats at 6 to 7 weeks were dosed orally by p.o. gavage with different doses of BTTQ formulated in 1% hydroxyethlycellulose (Dow Corning, Midland, MI, United States) (w/v), 0.25% polysorbate 80 (Sigma-Aldrich, St. Louis, MO, United States) (v/v), and 0.05% antifoam (v/v; Dow Corning, Midland, MI, United States) in purified water. Following dosing, ear temperature was measured by using a k-type thermocouple probe digital thermometer (Cole Parmer) every hour for 6 h and then at 24 h. Blood samples for plasma exposure measurement were obtained at the same time. Blood was collected via a tail snip directly into a 20-μL EDTA-coated capillary and immediately spotted onto a Whatman DMPK-C DBS card (GE Healthcare Bio-Sciences). Tail snips were performed by removing approximately 1 mm of the tail by using a scalpel. Blood flow was initiated by gentle squeezing of the tail. No analgesia or anesthesia was used during blood collections. A single sample and spot were collected per time point. The DBS cards were allowed to dry for approximately 2 h at room temperature, after which the cards were placed in a zip-top bag, stored, and shipped at ambient temperature.
(§1) All data in this manuscript were presented as mean ± SEM with a significance level of p < 0.05, and n represents the number of individual animals. The significance of differences in concentration-response curves in the ear temperature and, myograft study were calculated using t-test, compare to the vehicle group. The EC50 was calculated using GraphPad Prism 8.3 using a 4-parameter logistic non-linear curve fit model. Single-dose rat telemetry data for normal and SHR rats and repeat-dose telemetry data in Dahls salt-sensitive rats were analyzed by two-way repeated measures ANOVA. Treatment group main effects were compared by Tukey’s HSD method. All telemetry data were analyzed with GraphPad Prism 8.3.

[2] = tested on: Dahl Salt Sensitive rats; experiment: Rat telemetry, blood pressure and heart rate
Source text: (§2) Male Sprague Dawley (Taconic Biosciences) rats, Spontaneous Hypertensive rats (Charles River Laboratories, United States), and Dahl Salt Sensitive rats (Medical College of Wisconsin) were implanted with transmitters (HD S10; Data Science International) for collection of BP and heart rate (HR) data. The transmitters are capable of transmitting a BP signal via a pressure catheter inserted into the abdominal aorta. Initially, a baseline was established and recorded. Each rat was then removed from its recording cage and was dosed by p.o. gavage with vehicle or compound and the animals were then returned to the recording cage. Data sampling for BP and HR was carried out in intervals at selected time points for the duration of the experiment.
as §1

[3] = tested on: Sprague Dawley rats; experiment: Rat telemetry, blood pressure and heart rate
Source text: as §2, §1

[4] = tested on: Spontaneous Hypertensive rats (SHR); experiment: Rat telemetry, blood pressure and heart rate
Source text: as §2, §1

[5] = 3 mg/kg twice daily oral for 21 days, high salt (4%) diet

## O=c1c2nnc(C3(C4CC4)CC3)n2c2c(n1CC1CC1)CCCC2 [BTTQ, 1-[1,1′-bi(cyclopropyl)-1-yl]-5-(cyclopropylmethyl)-6,7,8,9-tetrahydro[1,2,4]triazolo[4,3-A]quinoxaline-4(5H)-one]
[1]; 3 mg/kg single oral dose, within 1 h
  increase of ear temperature compared to the vehicle control: 14%
[1]; 0.1, 0.3, and 1 mg/kg single oral dose
  ear temperature: significant dose-dependent increase
[1]; Rattus norvegicus, single oral dose, 1 h time point, four parametric logistic equation, read-out: median effective dose (ED50), ear temperature
  ED50: 0.14 mg/kg
[1]; all doses, single oral dose
  time at which ear temperature returned to baseline: 6 h
[1]; single oral dose
  time for which the increase in ear temperature stayed significant: up to 3 h
[2]; [5]
  MAP compared to the vehicle-treated group: profound reduction
  heart rate: elevation of heart rate
[2]; Dahl salt-sensitive rats
  lowering of blood pressure compared to the vehicle-treated group: ~24 mmHg
[3]; 1 and 3 mg/kg twice daily oral
  heart rate: dose-dependent increase
[3]; 1 and 3 mg/kg twice daily oral (both groups), within 1 h of the first dose
  immediate decrease in MAP compared to the vehicle: about 5 mmHg
[3]; high dose group (3 mg/kg twice daily oral)
  time after second dose at which BP-lowering effect returned to baseline: 7 h
[3]; normal Sprague Dawley rats
  lowering of blood pressure compared to the vehicle-treated group: about 9 mmHg
[4]; 0.03 mg/kg twice daily oral
  effect on BP: did not show any effect
  effect on HR: did not show any effect
[4]; 0.03, 0.1, 0.3, 1, and 3 mg/kg twice daily oral, 24 h telemetry
  MAP: dose-dependent decrease
[4]; 0.03-3 mg/kg twice daily oral
  heart rate: dose-dependent increase
[4]; BTTQ administered on top of ACE inhibitor
  additional blood pressure lowering: about 22 mmHg
[4]; SHR
  lowering of blood pressure compared to the vehicle-treated group: ~36 mmHg
